Experimental data taken from patent US6184374A, “Targeted cytotoxic anthracycline analogs” (priority 1998, dated 2001).

What was measured:
[1] = target: T1, bombesin receptors on Swiss 3T3 cell line (Mus musculus, UniProt P21729); experiment: Displacement of [125I-Tyr4]BN binding on Swiss 3T3 cells
T1 construct: host or cells: Swiss 3T3 cells
Procedure: Radio iodination of [Tyr^4 ]BN (Sigma) using a Bio-Rad Enzymobead Radio lodination kit and isolation of mono-iodinated [^125 l-Tyr^4 ]BN was performed as described earlier (1). […] Three to five days after seeding, the confluent cells were washed twice with Hanks' Balanced Salt Solution (HBSS) and incubated for 30 min at 37° C. with 50 pM [^125 l-Tyr^4 ]BN in the absence or presence of several concentrations of unlabeled competitors (Q6^14 gB or BN) in a total volume of 0.5 ml binding buffer (DMEM with 50 mM HEPES, 0.1% bovine serum albumin (BSA), 5 mM MgCl2 and 100 μg/ml bacitracin, pH: 7.4). Nonspecific binding was determined in the presence of 1 μM unlabeled ligand. After three washings with ice-cold HBSS containing 0.1% BSA (pH: 7.4) the cells were detached with 0.05% Trypsin/0.53 mM EDTA solution and transferred to tubes. Radioactivity was measured with a gamma-counter (Micromedic Systems Inc, Huntsville, Ala.). Binding data were evaluated using radio ligand binding analysis programs by McPherson (4). Ki values presented in Table 23-1, were calculated according to the formula of Cheng and Prusoff (5).

[2] = test system: estrogen independent MXT mouse mammary cancers; experiment: Single treatment of estrogen independent MXT mouse mammary cancers (KS-55); assay type: in vivo; settings: single dose of 650 nmol/20 g mouse (as printed in text)
Procedure: In order to determine the maximum tolerated doses and compare the effects, MXT (3.2) ovex tumor pieces (1 mm^3) were implanted s.c. in female B6 D2 F1 mice. One day after transplantation the mice were randomly divided into groups of five animals and they were treated with a single injection i.p. The groups and doses are shown in the Table 25-1. […] The compounds were dissolved in 0.1% TFA (pH: 2.0). Tumor volume was measured on days 10, 13, 17, and 20.

[3] = target: T2, breast cancer receptors (Homo sapiens, UniProt P30968); experiment: Receptor binding potency, breast cancer receptors
T2 construct: from tissue
T2 sequence (P30968 1-328): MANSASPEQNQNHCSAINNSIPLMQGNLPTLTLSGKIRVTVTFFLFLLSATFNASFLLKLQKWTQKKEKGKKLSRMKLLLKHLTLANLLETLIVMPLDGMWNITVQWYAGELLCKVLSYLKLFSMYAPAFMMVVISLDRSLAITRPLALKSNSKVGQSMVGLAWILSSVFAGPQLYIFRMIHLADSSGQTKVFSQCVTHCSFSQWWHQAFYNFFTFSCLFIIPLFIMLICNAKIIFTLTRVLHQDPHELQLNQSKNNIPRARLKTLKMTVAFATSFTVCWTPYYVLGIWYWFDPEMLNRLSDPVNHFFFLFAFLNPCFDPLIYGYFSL

[4] = target: T3, rat pituitary receptors (Rattus norvegicus, UniProt P30969); experiment: Receptor binding potency, rat pituitary receptors
T3 construct: from tissue; host or cells: rat pituitary
T3 sequence (P30969 1-327): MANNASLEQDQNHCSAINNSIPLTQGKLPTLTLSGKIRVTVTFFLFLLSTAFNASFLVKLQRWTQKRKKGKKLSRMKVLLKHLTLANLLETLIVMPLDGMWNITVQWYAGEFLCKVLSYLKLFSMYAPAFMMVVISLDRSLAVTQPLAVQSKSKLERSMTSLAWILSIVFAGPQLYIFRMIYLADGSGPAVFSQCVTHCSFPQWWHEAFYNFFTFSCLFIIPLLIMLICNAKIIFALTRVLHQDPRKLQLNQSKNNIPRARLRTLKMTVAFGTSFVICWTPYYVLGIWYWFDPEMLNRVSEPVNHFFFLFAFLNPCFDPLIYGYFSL

[5] = test system: LH-responses; experiment: Hormonal activity of LH-RH analogs (LH-responses rel. to LH-RH); assay type: cell-based; settings: relative to LH-RH = 1
[6] = test system: estrogen independent MXT mouse mammary cancers; experiment: Effect of cytotoxic LH-RH analogs on estrogen independent MXT mouse mammary cancers (KS-47); assay type: in vivo; settings: daily dose of 30 nmol (equimolar) i.p. for 12 days
Procedure: MXT (3.2) ovex tumor pieces (1 mm^3) were transplanted in female B6 D2 F1 mice. The treatment started one day after transplantation and was continued for 12 days by i.p. injections once a day. Tumors were measured on days 10, 14 and 18, and tumor volume was calculated.

T1 sequence (P21729 whole entry): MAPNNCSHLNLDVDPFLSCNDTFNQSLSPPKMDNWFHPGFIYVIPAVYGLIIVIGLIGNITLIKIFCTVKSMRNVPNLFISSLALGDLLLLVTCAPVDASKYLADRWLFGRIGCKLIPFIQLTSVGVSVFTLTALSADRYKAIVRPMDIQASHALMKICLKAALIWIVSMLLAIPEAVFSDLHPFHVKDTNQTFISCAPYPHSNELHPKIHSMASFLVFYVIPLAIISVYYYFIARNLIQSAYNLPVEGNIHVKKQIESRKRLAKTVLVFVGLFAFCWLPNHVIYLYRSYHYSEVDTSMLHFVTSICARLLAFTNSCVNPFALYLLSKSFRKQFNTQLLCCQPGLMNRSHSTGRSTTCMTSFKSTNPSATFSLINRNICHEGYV

For `COc1cccc2c1C(=O)c1c(O)c3c(c(O)c1C2=O)C[C@@](O)(C(=O)COC(=O)CCCC(=O)N[C@@H](CCC(N)=O)C(=O)N[C@@H](Cc1c[nH]c2ccccc12)C(=O)N[C@@H](C)C(=O)N[C@H](C(=O)NCC(=O)N[C@@H](Cc1c[nH]cn1)C(=O)N[C@H](CN[C@@H](CC(C)C)C(N)=O)CC(C)C)C(C)C)C[C@@H]3O[C@H]1C[C@H](N2C=CCC2)[C@H](O)[C@H](C)O1` [Q6^14 gB, 2-pyrrolino-DOX^14 -O-glt-Gln-Trp-Ala-Val-Gly-His-Leu.PSI.(CH2 --NH)Leu-NH2], the Ki [1] was 1 nM.
In the case of `COc1cccc2c1C(=O)c1c(O)c3c(c(O)c1C2=O)C[C@@](O)(C(=O)COC(=O)CCCC(=O)NCCCC[C@@H](NC(=O)[C@H](Cc1ccc(O)cc1)NC(=O)[C@H](CO)NC(=O)[C@H](Cc1c[nH]c2ccccc12)NC(=O)[C@H](Cc1c[nH]cn1)NC(=O)[C@@H]1CCC(=O)N1)C(=O)N[C@@H](CC(C)C)C(=O)N[C@@H](CCCNC(=N)N)C(=O)N1CCC[C@H]1C(=O)NCC(N)=O)C[C@@H]3O[C@H]1C[C@H](N)[C@H](O)[C@H](C)O1` [Q1^14 gL, [D-Lys^6 (DOX^14 -O-glt)]LH-RH], the Toxicity [2] is reported as “nontoxic”, the IC50 [3] is reported as 7.24 nM and the IC50 [4] is reported as 2.29 nM.
With `COc1cccc2c1C(=O)c1c(O)c3c(c(O)c1C2=O)C[C@@](O)(C(=O)COC(=O)CCCC(=O)NCCCC[C@@H](NC(=O)[C@H](Cc1ccc(O)cc1)NC(=O)[C@H](CO)NC(=O)[C@H](Cc1c[nH]c2ccccc12)NC(=O)[C@H](Cc1c[nH]cn1)NC(=O)[C@@H]1CCC(=O)N1)C(=O)N[C@@H](CC(C)C)C(=O)N[C@@H](CCCNC(=N)N)C(=O)N1CCC[C@H]1C(=O)NCC(N)=O)C[C@@H]3O[C@H]1C[C@H](N2C=CCC2)[C@H](O)[C@H](C)O1` [Q6^14 gL, [D-Lys^6 (2-pyrrolino-DOX^14 -O-glt)]LH-RH] the IC50 [3] was 6.7 nM and the IC50 [4] was 5.59 nM.
For `CC(C)C[C@H](NC(=O)[C@@H](CCCCN)NC(=O)[C@H](Cc1ccc(O)cc1)NC(=O)[C@H](CO)NC(=O)[C@H](Cc1c[nH]c2ccccc12)NC(=O)[C@H](Cc1c[nH]cn1)NC(=O)[C@@H]1CCC(=O)N1)C(=O)N[C@@H](CCCNC(=N)N)C(=O)N1CCC[C@H]1C(=O)NCC(N)=O` [[D-Lys^6]LH-RH], the IC50 [3] was 1.8 nM, the “Hormonal activity (LH-responses rel. to LH-RH = 1)” value [5] was 8 and the “Effect on tumor growth” value [6] was “did not affect tumor growth”. For the same compound, the “Mean survival after transplantation” value [6] was 23.5 days, the “Mean tumor volume on day 10” value [6] was 165 mm^3 and the “Mean tumor volume on day 14” value [6] was 1348 mm^3. The “Mean tumor volume on day 18” value [6] was 4003 mm^3.
